Among the data in PubChem BioAssay (NCI) are TGI values, retold here.

Each structure is given as a SMILES string.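 48-hour exposure; five concentrations; linearly interpolated endpoints. Definition used: TGI = concentration required for complete inhibition of growth.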 Where only a bound is given, the exact number is not on record here.

Experiment in all cases: NCI-60 cell line screen, 48 h
Assay [1] relates to COLO 205 colon.
For assay [2], the system named is HCT-15 colon.
Assay [3] has as its system LOX IMVI melanoma.
Assay [4] relates to M14 melanoma.
Assay [5] relates to MDA-MB-231 breast.
In assay [6] the test system is MOLT-4 leukemia.
Assay [7] has as its system SF-268 CNS.
The test system of assay [8] is SF-295 CNS.
Assay [9] deals with SK-MEL-5 melanoma.
Assay [10] relates to UACC-257 melanoma.

For the compound `CCOc1ccc(N=Nc2ccc3cc(/C(C)=N/NC(=O)/C(C#N)=C\c4ccc(N(CCC#N)CCC#N)cc4)c(=O)oc3c2)cc1`, the TGI in assay [1], in assay [2], in assay [3], in assay [4], in assay [5] and in assay [6] was greater than 10 µM in each case. Besides, the TGI in assay [7], in assay [8], in assay [9] and in [10] was greater than 10 µM throughout.
With `CC(=O)OCC(=O)O[C@@H]1[C@H]2[C@@H](OC(=O)c3ccccc3)[C@@H](C)C[C@]2(O)[C@H](OC(C)=O)[C@@]2(C)C[C@]1(OC(C)=O)C[C@H]1C(=O)C(C)(C)[C@@H](OC(C)=O)[C@@H]12`, the TGI in [1], in assay [2], in [3], in assay [4], in assay [5] and in assay [6] was greater than 25 µM throughout. The TGI in assay [7], in assay [8], in [9] and in [10] was greater than 25 µM in each case.
`C=C(C)[C@H]1CC(=O)/C(C)=C\CC/C(C)=C/CC[C@@]2(C)O[C@@H]2C1`: the TGI in assay [1] is 32 µM; in assay [2], greater than 100 µM; in assay [3], 32.2 µM; in [4] it was greater than 100 µM; in [5], greater than 100 µM; in assay [6] it was greater than 100 µM. In addition, the TGI in assay [7] is 61.2 µM; in assay [8], 89.8 µM; in assay [9], 45.5 µM; in assay [10], greater than 100 µM.
Consider `CC1(C)OC[C@@H](C[C@H](O)COCc2ccccc2)O1`, for which the TGI in [1], in [2], in assay [3], in assay [4], in [5] and in assay [6] was greater than 100 µM in each case. Also, the TGI in assay [7], in assay [8], in assay [9] and in assay [10] was greater than 100 µM throughout.
For `CCCCN1C(=O)CC2[C@@H]3CCc4cc(OC)ccc4C3CC[C@]2(C)C1=O` (stereo not given in full), the TGI in assay [1], in assay [2], in assay [3], in assay [4], in assay [5] and in assay [6] was greater than 10 µM each time. Further, the TGI in assay [7], in [8], in [9] and in [10] was greater than 10 µM throughout.
Take `O=c1[nH]c(=O)n(C2CC(O)C(CO)O2)cc1OC/C=C/Cc1ccccc1` (stereo not given): the TGI in assay [1], in assay [2], in assay [3], in [4], in [5] and in assay [6] was greater than 100 µM each time. For the same compound, the TGI in assay [7], in [8], in [9] and in assay [10] was greater than 100 µM throughout.
For the compound `Cn1nc2c(c1N)Cc1c(nn(C)c1N)-c1ccccc1-2`, the TGI in assay [1], in assay [2], in assay [3], in assay [4], in assay [5] and in assay [6] was greater than 100 µM in each case. In addition, the TGI in assay [7], in [8], in assay [9] and in assay [10] was greater than 100 µM each time.
As to `Cc1cc(S(=O)(=O)Nc2n[nH]c(Nc3ccccc3)n2)c(SCC(=O)O)cc1Cl`, the TGI in [1], in assay [2], in assay [3], in assay [4], in [5] and in [6] was greater than 100 µM throughout. For the same compound, the TGI in [7], in assay [8], in assay [9] and in [10] was greater than 100 µM throughout.
For `O=C(/C=C\Nc1ccccc1O)C(F)(F)F`, the TGI in [1] was 71.1 µM; in [2], greater than 100 µM; in [3], greater than 100 µM; in assay [4] it was greater than 100 µM; in assay [5], greater than 100 µM; in assay [6], greater than 100 µM. For the same compound, the TGI in assay [7] is greater than 100 µM; in assay [8] it was greater than 100 µM; in [9], 53.5 µM; in assay [10], greater than 100 µM.
For `CC1=C(C(=O)NC2CCCCC2)CC(C(=O)NC2CCCCC2)=C(C)N1`, the TGI in assay [1], in assay [2], in [3], in assay [4], in assay [5] and in assay [6] was greater than 100 µM throughout. Moreover, the TGI in assay [7], in assay [8], in assay [9] and in assay [10] was greater than 100 µM each time.
As to `COc1cc2c3c(cc(Cl)nc3c1OC)C(=O)C(=O)N2`, the TGI is 51 µM in assay [1]; 40.8 µM in [2]; 25.9 µM in assay [3]; 29.3 µM in [4]; 3.83 µM in assay [5]; greater than 31.2 µM in assay [6]. Moreover, the TGI in assay [7] was found to be 31.6 µM; in assay [8], 32.9 µM; in assay [9], 32.4 µM; in [10], 21.9 µM.
As for `Cc1nnc2n1-c1ccccc1N(Cc1ccccc1)CC2`, the TGI in [1] is greater than 100 µM; in assay [2], greater than 100 µM; in assay [3] it was greater than 100 µM; in assay [4], greater than 100 µM; in assay [5], greater than 100 µM; in assay [6], 89.5 µM. The TGI in assay [7], in assay [8], in assay [9] and in assay [10] was greater than 100 µM in each case.
Turning to `Clc1cc(C(c2cc(Cl)sc2Cl)c2cc(Cl)sc2Cl)c(Cl)s1`, the TGI in assay [1], in assay [2], in assay [3], in assay [4], in [5] and in [6] was greater than 100 µM in each case. Moreover, the TGI in [7], in assay [8], in assay [9] and in assay [10] was greater than 100 µM in each case.
Regarding `COCC#C[C@@]1(O)CCCCC1CC(OC)OC` (stereo not given in full), the TGI in [1], in assay [2], in assay [3], in [4], in assay [5] and in [6] was greater than 100 µM each time. Further, the TGI in assay [7], in [8], in assay [9] and in assay [10] was greater than 100 µM each time.
`C[N+]1(CCN=C=NC2CCCCC2)CCOCC1`: the TGI in [1], in assay [2], in assay [3], in assay [4], in [5] and in assay [6] was greater than 100 µM in each case. The TGI in assay [7], in [8], in assay [9] and in [10] was greater than 100 µM throughout.
On to `C#CCOCC12C=CC(O1)C1COC(=O)C12` (stereo not given), for which the TGI in [1], in assay [2], in [3], in assay [4], in assay [5] and in [6] was greater than 100 µM in each case. The TGI in [7], in assay [8], in [9] and in assay [10] was greater than 100 µM each time.
For `N#Cc1nc(CCCN2C(=O)c3ccccc3C2=O)oc1N`, the TGI in assay [1], in assay [2], in assay [3], in [4], in assay [5] and in assay [6] was greater than 100 µM throughout. Further, the TGI in assay [7], in [8], in assay [9] and in [10] was greater than 100 µM in each case.
In the case of `Cc1nc(SCC(N)=O)c2sc(=S)n(-c3ccccc3)c2n1`, the TGI in assay [1], in assay [2], in assay [3], in assay [4], in assay [5] and in assay [6] was greater than 10 µM throughout. Further, the TGI in assay [7], in [8], in assay [9] and in assay [10] was greater than 10 µM throughout.
Regarding `O=C1CS/C(=N/N=C/c2cn(Cc3ccc(Cl)cc3Cl)c3ccccc23)N1`, the TGI in assay [1] was greater than 100 µM; in assay [2], greater than 100 µM; in [3] it was greater than 100 µM; in assay [4], greater than 100 µM; in assay [5], 48 µM; in assay [6] it was greater than 100 µM. Moreover, the TGI in assay [7], in assay [8], in assay [9] and in [10] was greater than 100 µM throughout.
Regarding `CNC(=S)NNc1ncnc2c1c(-c1ccc(Cl)cc1)cn2-c1ccc(C)cc1`, the TGI in assay [1] is 29.6 µM; in [2], 21 µM; in assay [3] it was 33.5 µM; in [4], 26.5 µM; in assay [5], 21.7 µM; in assay [6] it was greater than 100 µM. Moreover, the TGI was 26.8 µM in [7], 20 µM in assay [8], 20.8 µM in assay [9] and 27 µM in assay [10].
Regarding `NC(Cc1[nH]nc2ccccc12)C(=O)O` (stereo not given), the TGI in assay [1], in assay [2], in assay [3], in [4], in assay [5] and in assay [6] was greater than 100 µM in each case. In addition, the TGI in [7], in assay [8], in assay [9] and in assay [10] was greater than 100 µM in each case.
Take `CCOc1ccc(NCC2CC/C(=C\C=C\c3ccccc3)C2=O)cc1` (stereo not given): the TGI in assay [1] is 31.7 µM; in assay [2] it was 18.9 µM; in [3], 23.5 µM; in [4] it was 29.6 µM; in assay [5], 24.7 µM; in assay [6] it was greater than 42.9 µM. In addition, the TGI was 24.2 µM in [7], 79.5 µM in assay [8], 30.7 µM in [9] and 38.4 µM in assay [10].
`C=C1C[C@@H]2CC[C@@]34C[C@H]5O[C@H]6[C@@H](O3)[C@H]3O[C@H](CC[C@@H]3O[C@H]6[C@H]5O4)CC(=O)C[C@@H]3[C@@H](OC)[C@@H](C[C@H](O)CN)O[C@H]3C[C@H]3O[C@@H](CC[C@@H]1O2)C[C@@H](C)C3=C`: the TGI was 0.00193 µM in assay [1]; greater than 0.76 µM in [2]; greater than 0.533 µM in [3]; 0.0307 µM in assay [4]; 0.087 µM in assay [5]; 0.0479 µM in assay [6]. Moreover, the TGI in assay [7] is greater than 1 µM; in [8], 0.251 µM; in [9] it was 0.043 µM; in assay [10] it was greater than 1 µM.
As to `COc1cc2[nH]c(=O)c3cc(-c4ccccc4)cc4c(Cl)nc(c1OC)c2c43`, the TGI in assay [1] is 38.5 µM; in assay [2], greater than 75.8 µM; in [3], greater than 73.6 µM; in assay [4], greater than 62.9 µM; in assay [5], greater than 100 µM; in [6] it was greater than 44.7 µM. For the same compound, the TGI in assay [7] is greater than 55.9 µM; in [8], greater than 100 µM; in [9], 28 µM; in assay [10], 21.6 µM.
As to `O=C(O)C1=NN(c2ccc(S(=O)(=O)O)cc2)C2(C1)C(Cl)C(=O)N2c1nc2ccccc2s1` (stereo not given), the TGI was 35.1 µM in assay [1]; 42.4 µM in assay [2]; 12.7 µM in assay [3]; 30.3 µM in [4]; 37.5 µM in [5]; 39.6 µM in assay [6]. Further, the TGI in assay [7] turned out to be 39.8 µM; in [8], 32.3 µM; in [9] it was 25.6 µM; in assay [10], 37.2 µM.
For `N#C/C(=C\c1cccc(Br)c1)c1nc2ccccc2c(=O)[nH]1`, the TGI in assay [1], in assay [2], in assay [3], in assay [4], in assay [5] and in assay [6] was greater than 100 µM each time. The TGI in assay [7], in [8], in assay [9] and in [10] was greater than 100 µM throughout.
